{
  "source": "ChEMBL document CHEMBL2413011",
  "about": "“One-pot tandem Hurtley-retro-Claisen-cyclisation reactions in the synthesis of 3-substituted analogues of 5-aminoisoquinolin-1-one (5-AIQ), a water-soluble inhibitor of PARPs” (Bioorg Med Chem, 2013)",
  "data": [
    {"molecular_target": "Poly [ADP-ribose] polymerase 1 (Bos taurus, UniProt P18493)", "sequence (P18493 whole entry)": "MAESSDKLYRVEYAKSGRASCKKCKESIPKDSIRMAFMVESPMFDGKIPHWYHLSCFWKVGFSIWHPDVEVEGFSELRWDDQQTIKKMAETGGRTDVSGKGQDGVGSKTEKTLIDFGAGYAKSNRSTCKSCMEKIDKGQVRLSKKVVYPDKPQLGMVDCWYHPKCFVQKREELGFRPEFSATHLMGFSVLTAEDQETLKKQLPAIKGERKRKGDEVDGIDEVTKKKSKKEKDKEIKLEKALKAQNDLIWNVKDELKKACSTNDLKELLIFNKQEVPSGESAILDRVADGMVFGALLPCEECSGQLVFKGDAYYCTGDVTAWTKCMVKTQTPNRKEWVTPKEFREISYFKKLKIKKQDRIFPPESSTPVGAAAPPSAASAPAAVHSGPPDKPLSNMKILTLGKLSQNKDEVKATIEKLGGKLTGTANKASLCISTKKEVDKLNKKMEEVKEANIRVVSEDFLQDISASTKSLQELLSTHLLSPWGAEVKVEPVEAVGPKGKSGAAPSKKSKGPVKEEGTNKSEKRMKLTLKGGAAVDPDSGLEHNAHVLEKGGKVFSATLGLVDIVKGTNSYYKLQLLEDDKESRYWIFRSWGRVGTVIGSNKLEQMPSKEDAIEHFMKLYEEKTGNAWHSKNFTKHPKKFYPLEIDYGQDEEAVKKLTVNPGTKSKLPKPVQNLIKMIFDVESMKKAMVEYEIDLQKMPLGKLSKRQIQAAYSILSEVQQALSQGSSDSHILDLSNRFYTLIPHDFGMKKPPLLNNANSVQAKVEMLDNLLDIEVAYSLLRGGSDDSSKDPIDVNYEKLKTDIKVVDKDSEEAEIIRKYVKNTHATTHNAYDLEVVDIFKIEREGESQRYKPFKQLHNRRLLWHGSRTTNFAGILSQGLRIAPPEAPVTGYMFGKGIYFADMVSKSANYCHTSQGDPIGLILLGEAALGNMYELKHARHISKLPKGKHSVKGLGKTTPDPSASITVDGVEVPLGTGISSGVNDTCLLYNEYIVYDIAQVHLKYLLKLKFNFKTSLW", "assay": "Inhibition of calf thymus PARP-1", "units": {"IC50": "nM"}, "values": [
      {"smiles": "Nc1cccc2c(=O)[nH]ccc12", "IC50": 250}
    ]},
    {"molecular_target": "T1, Poly [ADP-ribose] polymerase 1 (Homo sapiens, UniProt P09874)", "T1 sequence (P09874 whole entry)": "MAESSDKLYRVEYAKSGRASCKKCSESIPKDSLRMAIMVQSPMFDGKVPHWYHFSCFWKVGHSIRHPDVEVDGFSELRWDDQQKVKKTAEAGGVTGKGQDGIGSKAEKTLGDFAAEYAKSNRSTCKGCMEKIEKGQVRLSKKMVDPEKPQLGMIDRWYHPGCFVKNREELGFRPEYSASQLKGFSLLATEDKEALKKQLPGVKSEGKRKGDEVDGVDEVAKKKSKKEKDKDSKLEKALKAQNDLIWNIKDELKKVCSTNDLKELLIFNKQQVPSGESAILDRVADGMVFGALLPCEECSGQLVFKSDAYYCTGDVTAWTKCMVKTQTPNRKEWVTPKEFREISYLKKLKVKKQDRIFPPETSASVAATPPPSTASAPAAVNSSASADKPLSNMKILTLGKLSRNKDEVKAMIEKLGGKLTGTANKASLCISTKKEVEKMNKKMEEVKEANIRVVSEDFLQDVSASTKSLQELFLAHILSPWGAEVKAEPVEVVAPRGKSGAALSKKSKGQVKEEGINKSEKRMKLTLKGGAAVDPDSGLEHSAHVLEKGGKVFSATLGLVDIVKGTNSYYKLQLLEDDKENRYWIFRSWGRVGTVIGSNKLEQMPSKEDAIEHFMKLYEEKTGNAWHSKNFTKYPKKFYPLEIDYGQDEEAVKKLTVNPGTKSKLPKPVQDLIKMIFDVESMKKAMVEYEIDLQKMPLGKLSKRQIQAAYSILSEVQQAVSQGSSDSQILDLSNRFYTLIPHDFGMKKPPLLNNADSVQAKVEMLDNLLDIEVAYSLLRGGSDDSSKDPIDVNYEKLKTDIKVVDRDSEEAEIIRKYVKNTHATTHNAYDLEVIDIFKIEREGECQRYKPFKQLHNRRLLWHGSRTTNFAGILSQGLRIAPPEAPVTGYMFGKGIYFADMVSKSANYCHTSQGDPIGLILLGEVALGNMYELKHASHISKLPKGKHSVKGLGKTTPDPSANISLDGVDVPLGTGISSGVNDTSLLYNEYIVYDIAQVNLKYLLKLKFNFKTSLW", "assay": "Inhibition of PARP-1 (unknown origin) in broken nuclear preparation", "units": {"IC50": "nM"}, "values": [
      {"smiles": "Nc1cccc2c(=O)[nH]ccc12", "IC50": 300}
    ]},
    {"system": "not listed separately", "assay": "Solubility of the compound in water", "type": "physicochemical", "units": {"solubility": "mM"}, "values": [
      {"smiles": "COc1ccc(-c2cc3c(N)cccc3c(=O)[nH]2)cc1.Cl", "solubility": "> 30"},
      {"smiles": "Cc1ccc(-c2cc3c(N)cccc3c(=O)[nH]2)cc1.Cl", "solubility": "> 30"},
      {"smiles": "Cl.Nc1cccc2c(=O)[nH]c(-c3ccc(Cl)cc3)cc12", "solubility": "> 30"},
      {"smiles": "Cl.Nc1cccc2c(=O)[nH]c(-c3ccc(C(F)(F)F)cc3)cc12", "solubility": "> 30"},
      {"smiles": "Cc1cc2c(N)cccc2c(=O)[nH]1.Cl", "solubility": "> 30"},
      {"smiles": "CCCCCc1cc2c(N)cccc2c(=O)[nH]1.Cl", "solubility": "> 30"},
      {"smiles": "Cl.Nc1cccc2c(=O)[nH]c(-c3ccccc3)cc12", "solubility": "> 30"},
      {"smiles": "CC(C)Cc1cc2c(N)cccc2c(=O)[nH]1.Cl", "solubility": "> 30"},
      {"smiles": "Cl.Nc1cccc2c(=O)[nH]c(-c3cccs3)cc12", "solubility": "> 30"},
      {"smiles": "Cl.Nc1cccc2c(=O)[nH]c(Cc3ccccc3)cc12", "solubility": "> 30"},
      {"smiles": "CCc1cc2c(N)cccc2c(=O)[nH]1.Cl", "solubility": "> 30"}
    ]},
    {"molecular_target": "Poly [ADP-ribose] polymerase 2 (Mus musculus, UniProt O88554)", "sequence (O88554 whole entry)": "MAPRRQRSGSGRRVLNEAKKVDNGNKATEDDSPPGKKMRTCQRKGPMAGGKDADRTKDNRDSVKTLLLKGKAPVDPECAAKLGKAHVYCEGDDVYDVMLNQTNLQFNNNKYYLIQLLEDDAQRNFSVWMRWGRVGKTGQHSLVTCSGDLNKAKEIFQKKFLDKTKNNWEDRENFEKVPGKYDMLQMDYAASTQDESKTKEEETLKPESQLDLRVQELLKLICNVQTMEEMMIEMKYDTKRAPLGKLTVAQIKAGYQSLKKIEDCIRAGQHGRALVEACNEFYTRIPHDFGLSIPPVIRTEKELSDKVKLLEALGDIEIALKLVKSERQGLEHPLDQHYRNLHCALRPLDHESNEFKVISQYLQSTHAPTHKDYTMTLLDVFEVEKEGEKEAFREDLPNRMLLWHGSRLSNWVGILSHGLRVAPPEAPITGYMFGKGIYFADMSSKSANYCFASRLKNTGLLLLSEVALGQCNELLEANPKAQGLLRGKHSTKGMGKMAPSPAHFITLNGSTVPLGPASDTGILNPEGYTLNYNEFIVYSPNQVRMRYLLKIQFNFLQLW", "assay": "Inhibition of mouse PARP-2", "units": {"IC50": "nM"}, "values": [
      {"smiles": "Nc1cccc2c(=O)[nH]c(-c3ccc(C(F)(F)F)cc3)cc12", "IC50": 170},
      {"smiles": "Cc1cc2c(N)cccc2c(=O)[nH]1", "IC50": 260},
      {"smiles": "Nc1cccc2c(=O)[nH]c(-c3ccc(Cl)cc3)cc12", "IC50": 160},
      {"smiles": "Nc1cccc2c(=O)[nH]c(-c3ccccc3)cc12", "IC50": 480},
      {"smiles": "Cc1ccc(-c2cc3c(N)cccc3c(=O)[nH]2)cc1", "IC50": 120},
      {"smiles": "COc1ccc(-c2cc3c(N)cccc3c(=O)[nH]2)cc1", "IC50": 730},
      {"smiles": "CCc1cc2c(N)cccc2c(=O)[nH]1", "IC50": 830}
    ]},
    {"molecular_target": "T1, Poly [ADP-ribose] polymerase 1", "assay": "Inhibition of human PARP-1 assessed as synthesis of [3H]-ADP-ribose polymers from [3H]-NAD+ by scintillation proximity assay", "units": {"IC50": "nM"}, "values": [
      {"smiles": "Nc1cccc2c(=O)[nH]ccc12", "IC50": 1600}
    ]}
  ]
}
